Laboratory results from patent publication US10888864B2, “Electrochemical metabolic activity detecting device” (The Governing Council of the University of Toronto, priority 2014, dated 2021).
In brackets after ≈: the same amount, converted by molar mass.

Key:
E. coli (UPEC) = assay: on-chip electrochemical (resazurin) antibiotic susceptibility assay in undiluted urine; format: cell-based, Escherichia coli
Description: (§1) The performance of the example device for electrochemical detection in urine was investigated. Human urine (BioreclamationlVT) was centrifuged at 5000 g for 5 min to remove large particulates. E. coli and K. pneumoniae were diluted to 100 cfu/μL and spiked in the urine. Samples (200 μL) were introduced at 20 μL/min. […] Air was flushed through the device to form the wells followed by FC-40 (200 μL) (Sigma Aldrich, St. Louis, Mo.). Thus the total volume of all solutions introduced is 600 μL which requires 30 min to process at 20 μL/min. The device was incubated in a water bath at 37° C. for 1 hour. 10 minutes were required to scan the leads. Thus the total time for the assay from sample introduction to readout was 1 hour and 40 minutes.
(§2) Other studies were carried out to assess the suitability of the example device to rapidly determine the antibiotic resistance profile of bacteria in undiluted urine.
(§3) E. coli (UPEC) and K. pneumoniae present at 100 cfu/μL in undiluted urine were introduced into the example device. After capture, a culture medium, resazurin, and either ampicillin or ciprofloxacin were introduced. FIGS. 5C and 5D show the electrochemical signal obtained as a function of antibiotic concentration after a 1 hour incubation at 37° C.
As this strain produces a beta lactamase, resistance to ampicillin, a beta-lactam antibiotic is expected. […]

K. pneumoniae [1] = assay: as above; format: cell-based, Klebsiella pneumoniae; conditions: K. pneumoniae 100 cfu/μL in undiluted urine, 1 hour incubation at 37° C., FIG. 5D
Description: as §1, §2, §3
(§4) As this strain produces a beta lactamase, resistance to ampicillin, a beta-lactam antibiotic is expected.

E. coli [2] = assay: standard microdilution assay with a 24 hour incubation; format: cell-based, Escherichia coli; conditions: absorbance at 600 nm, FIG. 5A
Description: (§5) An antibiotic susceptibility microdilution assay was also performed using the example device. […] After 24 hours, the absorbance at 600 nm was measured.
as §4

K. pneumoniae [3] = assay: as above; format: cell-based, Klebsiella pneumoniae; conditions: FIG. 5B; for MIC90: Klebsiella pneumoniae, 24 hour incubation
Description: as §5, §4

E. coli [4] = assay: on-chip electrochemical antibiotic susceptibility assay in unpurified urine; format: cell-based, Escherichia coli; conditions: E. coli 100 cfu/μL in undiluted unpurified urine, 10 μm pre-filter, 37° C. for 1 hour, FIG. 5E
Description: The performance of the example device was also investigated for electrochemical detection in unpurified urine. E. coli were diluted to 100 cfu/μL and spiked in the unpurified human urine (BioreclamationlVT). The spiked urine (200 μL) was passed through a 10 μm filter to remove large particulates and directly introduced at 20 μL/min into the chip. […] Air was flushed through the device to form the wells followed by FC-40 (Sigma Aldrich, St. Louis, Mo.). The device was incubated in a water bath at 37° C.
A series of experiments were also performed to determine the antibiotic susceptibility of bacteria in unpurified urine. […] Currents are normalized to the maximum value. Error bars represent standard error.
E. coli were spiked directly into undiluted and unpurified urine at 100 cfu/μL. The sample was passed through a 10 μm filter that removed large particulates while allowing bacteria to pass. FIG. 18 illustrates the effect of pre-filter size on recovery of bacteria spiked in undiluted urine. […] No appreciable signal change was found when using a blank control sample of unpurified urine (see FIG. 4, discussed above).

K. pneumoniae [5] = assay: time required for antibiotics to hinder metabolic activity (resazurin fluorescence); format: cell-based, Klebsiella pneumoniae; conditions: K. pneumoniae 1×10^5 cfu/μL, antibiotic 100 μg/mL, LB media, 1 mM resazurin, 37° C., FIG. 16
Description: In order to choose a suitable incubation period for the susceptibility test, the time required for the antibiotics to begin inhibiting bacterial metabolic activity was investigated. […] The increase in fluorescence induced by the conversion of resazurin by metabolically active bacteria was recorded.

| SMILES | antibiotic concentration at which the bacteria are susceptible (electrochemical signal) (E. coli (UPEC); E. coli (UPEC) 100 cfu/μL in undiluted urine, 1 hour incubation at 37° C., FIG. 5C) | electrochemical signal with increasing antibiotic concentration / susceptibility call (K. pneumoniae [1]) | minimum antibiotic concentration that inhibits 90% of bacterial growth (MIC90) (E. coli [2]) | susceptibility call by standard microdilution assay (K. pneumoniae [3]) | MIC90 (K. pneumoniae [3]) [µg/mL] | antibiotic concentration at which E. coli are susceptible (electrochemical signal) (E. coli [4]) [µg/mL] | effect on metabolism of E. coli (electrochemical scan) (E. coli (UPEC); 1 μg/mL antibiotic, E. coli in urine at 100 CFU/μL, 1 mM resazurin, 60 min at 37° C., FIG. 19B) | fluorescence signal (resazurin conversion) in presence of antibiotic (K. pneumoniae [5]) |
| --- | --- | --- | --- | --- | --- | --- | --- | --- |
| O=C(O)c1cn(C2CC2)c2cc(N3CCNCC3)c(F)cc2c1=O [ciprofloxacin] | above 1 μg/mL | susceptible | less than 0.1 μg/mL | susceptible | 2 (≈ 6.04 µM) | ≥ 1 |  |  |
| CC1(C)S[C@@H]2[C@H](NC(=O)[C@H](N)c3ccccc3)C(=O)N2[C@H]1C(=O)O [ampicillin] |  | approximately constant | 16 µg/mL | resistant | > 100 |  | insufficient to inhibit the metabolism | fluorescence increases |
